Consider 3 molecules from publication PMC7319089, “Multi-Component Comparative Pharmacokinetics in Rats After Oral Administration of Fructus aurantii Extract, Naringin, Neohesperidin, and Naringin-Neohesperidin” (Frontiers in Pharmacology, 2020).

Molecules are shown by their SMILES. Like-named read-outs stand apart in the source and are kept apart here.

The nature of data set [1]: Pharmacokinetics in SD rats after oral administration of FA extract, NA, NHE or NA-NHE (UPLC-MS/MS of plasma, DAS 3.1). As to conditions: for Shape of the plasma concentration-time profile: rats, oral administration, naringin and neohesperidin determined as naringenin and hesperetin. It counts as in vivo, Sprague-Dawley (SD) rats. On the procedure: The 20 μl of β-glucuronidase and 15 μl of sulfatase were added into 50 μl of plasma sample. After vortexed for 30 s, the mixture was incubated at 37°C for 2 h in a water bath, then placed in ice water for 5 min to terminate the reaction ([Xu et al., 2019]). IS solution (20 µl, 5 μg/ml) and acetonitrile (1.0 ml) were added into the mixture and vortexed for 2 min. […] Rats were randomly divided into the following four groups (6 rats in each group): naringin (NA), neohesperidin (NHE), naringin-neohesperidin (NA-NHE), and FA extract group. The oral administration doses were selected according to the literatures ([Tong et al., 2012]; [Yang et al., 2012]; [Committee of National Pharmacopoeia of RP China, 2015]; [Wang et al., 2018]; [Zhang et al., 2018]; [Chen et al., 2019]), the contents of the five components in FA, and the preliminary experiments. The specific doses were as follows: […] The rats had free access to water during the experiment. The blood samples were then immediately centrifuged at 4,000 rpm for 10 min. The plasma was frozen and stored at −80°C until analysis. The plasma concentration of the studied compounds was determined according to the daily calibration curve.

Details of data set [2]: method as in Wang et al., 2018. The settings on record: after orally administering 30 g/kg FA decoction; ref Wang et al., 2018; cited from earlier work.
Data set [3] is described as follows: Stability of the analytes in rat plasma (QC samples). As to conditions: n = 6; for Long-term Stability RE: -20 °C for one month; for Short-term Stability RE: room temperature 24 h; for Free–thaw Stability RE: three cycles -20 °C/room temperature. It is filed as in vitro ADME. On the procedure: The QC samples were assayed under several different conditions to evaluate the stability of the compounds in rat plasma. For the short-term stability, fresh plasma samples were kept at room temperature for 24 h before the sample preparation. After keeping the samples at room temperature for 24 h, post-preparation stability was tested. Freeze-thaw cycles (-20 °C/room temperature) stability were […] treated at -20°C for freezing-room temperature melting three times (repeated freezing and thawing three times). In each freeze-thaw cycle, the samples were frozen and stored at -20 °C for 24 h, and subsequently thawed at room. To evaluate the long-term stability of QC plasma samples, following storage at -20 °C for one month. The stability data were acceptable when the bias was within ±15% of the actual value ([Yuan et al., 2017]).

[4] abbreviates: SD rats, oral compatibility NA-NHE (naringin 1.85 g/kg and neohesperidin 1.81 g/kg), two-compartment parameters, n = 6.
Setting [5] is: SD rats, oral monomer (naringin 1.85 g/kg or neohesperidin 1.81 g/kg), two-compartment parameters, n = 6.
Where [6] appears, read: male SD rats, oral FA extract 10.8 g/kg of the original medicinal material, two-compartment model parameters, n = 6.
Setting [7] is: male, Sprague-Dawley, rat, plasma, po, 10.8 g/kg, male SD rats, oral FA extract 10.8 g/kg of the original medicinal material, two-compartment model parameters, n = 6.
Where [8] appears, read: male, Sprague-Dawley, rat, plasma, po, 10.8 g/kg, male SD rats, oral FA extract 10.8 g/kg of the original medicinal material, two-compartment model parameters, n = 6, read-out: AUC(0-t).
Where [9] appears, read: male, Sprague-Dawley, rat, plasma, po, 10.8 g/kg, male SD rats, oral FA extract 10.8 g/kg of the original medicinal material, two-compartment model parameters, n = 6, read-out: CL/F (converted).
[10] abbreviates: male, Sprague-Dawley, rat, plasma, po, 10.8 g/kg, male SD rats, oral FA extract 10.8 g/kg of the original medicinal material, two-compartment model parameters, n = 6, read-out: t1/2β (converted).
[11] abbreviates: high QC concentration (3880 / 2946 / 2470 / 836 / 422.4 ng/mL).
Setting [12] is: low QC concentration (3.88 / 2.946 / 2.47 / 0.836 / 0.4224 ng/mL).
[13] abbreviates: middle QC concentration (77.6 / 58.92 / 49.4 / 16.72 / 8.44 ng/mL).

As to `COc1ccc([C@@H]2CC(=O)c3c(O)cc(O[C@@H]4O[C@H](CO)[C@@H](O)[C@H](O)[C@H]4O[C@@H]4O[C@@H](C)[C@H](O)[C@@H](O)[C@H]4O)cc3O2)cc1O` [NHE, neohesperidin], in data set [1] (setting [4]), the AUC(0-t) (in general, exposure summed from dosing to a finite time, without extrapolation to infinity) came out at 3475.14 ± 714.19 ng·h/mL; the “AUC(0-∞)” value was 3557.64 ± 726.84 ng·h/mL; the CL/F was 60.5 ± 13.3 mL/min/kg; the Ka turned out to be 4.40 ± 0.83 h⁻¹. For the same molecule, in data set [1] (setting [4]), the V1/F is reported as 4.37 ± 1.16 L/kg, the “t1/2(Ka)” value came to 0.57 ± 0.11 h, the t1/2α came to 3.22 ± 0.42 h and the t1/2β was determined as 3.43 ± 0.55 h. In data set [1] (setting [5]), the “AUC(0-t)” value is 2932.05 ± 625.03 ng·h/mL, the “AUC(0-∞)” value was found to be 2988.05 ± 621.39 ng·h/mL, the CL/F was 91.5 ± 12.2 mL/min/kg and the Ka amounted to 1.64 ± 0.35 h⁻¹. Moreover, in data set [1] (setting [5]), the V1/F was 4.58 ± 1.18 L/kg, the “t1/2(Ka)” value came to 0.96 ± 0.08 h, the t1/2α was 4.39 ± 0.47 h and the t1/2β is given as 4.61 ± 0.48 h. For the same molecule, in data set [1] (setting [6]), the area under the curve AUC(0-t) is 4345.39 ± 704.69 ng·h/mL, the “AUC(0-∞)” value was determined as 4421.59 ± 723.98 ng·h/mL, the CL/F amounted to 68.2 ± 18.3 mL/min/kg and the Ka worked out at 3.17 ± 0.93 h⁻¹. For the same molecule, in data set [1] (setting [6]), the V1/F worked out at 7.17 ± 1.40 L/kg, the “t1/2(Ka)” value was determined as 0.26 ± 0.07 h, the t1/2α stood at 3.47 ± 0.51 h and the t1/2β was found to be 3.86 ± 0.32 h. In addition, in data set [1], the “Shape of the plasma concentration-time profile” value (“Shape” for short) is recorded as “Double-peak phenomenon”. In addition, in data set [2], the “Detection in rat plasma” value was “could not been detected”.

The molecule `C[C@@H]1O[C@@H](O[C@H]2[C@H](Oc3cc(O)c4c(c3)O[C@H](c3ccc(O)cc3)CC4=O)O[C@H](CO)[C@@H](O)[C@@H]2O)[C@H](O)[C@H](O)[C@H]1O` [NA, naringin] displayed a V1/F in data set [1] (setting [6]) of 0.82 ± 0.06 L/kg. Moreover, the AUC(0-inf) (usually the area under the concentration-time curve extrapolated to infinity) in data set [1] (setting [7]) came to 20900 ± 3010 ng·h/mL. Further, the AUC(0-t) in data set [1] (setting [8]) is 20700 ± 3010 ng·h/mL. Also, the CL/F in data set [1] (setting [9]) was 13.8 mL/min/kg. Also, the half-life in data set [1] (setting [10]) is 2.65 ± 0.18 h. Further, the “Shape” value in data set [1] was “Double-peak phenomenon”. Moreover, the “Detection in rat plasma” value in data set [2] is “could not been detected”.

Consider `COc1ccc([C@@H]2CC(=O)c3c(O)cc(O)cc3O2)cc1O` [Hesperetin, hesperetin], for which the MRT last in data set [1] (Sprague-Dawley, rat, plasma, male SD rats, oral FA extract 10.8 g/kg of the original medicinal material, statistical moment parameters, n = 6, read-out: MRT(0-t)) was 11.4 ± 0.37 h. Besides, the MRT inf in data set [1] (Sprague-Dawley, rat, plasma, male SD rats, oral FA extract 10.8 g/kg of the original medicinal material, statistical moment parameters, n = 6, read-out: MRT(0-∞)) worked out at 11.7 ± 0.42 h. The Vd/F in data set [1] (Sprague-Dawley, rat, plasma, male SD rats, oral FA extract 10.8 g/kg of the original medicinal material, statistical moment parameters, n = 6, read-out: Vz/F) worked out at 12.2 ± 1.67 L/kg. Further, the Cmax in data set [1] (Sprague-Dawley, rat, male SD rats, oral FA extract 10.8 g/kg of the original medicinal material, plasma after β-glucuronidase/sulfatase hydrolysis, statistical moment parameters, n = 6) is 425 ± 11.1 ng/mL. Besides, in data set [1] (setting [6]), the Ka is 3.17 ± 0.93 h⁻¹. For the same molecule, in data set [1] (setting [6]), the V1/F amounted to 7.17 ± 1.40 L/kg. This molecule also gave a t1/2α in data set [1] (setting [6]) of 3.47 ± 0.51 h. The AUC(0-inf) in data set [1] (male, Sprague-Dawley, rat, plasma, po, 10.8 g/kg, male SD rats, oral FA extract 10.8 g/kg of the original medicinal material, statistical moment parameters, n = 6) was 4340 ± 326 ng·h/mL; in data set [1] (setting [7]) it was 4420 ± 724 ng·h/mL. Also, the area under the curve AUC(0-t) in data set [1] (male, Sprague-Dawley, rat, plasma, po, 10.8 g/kg, male SD rats, oral FA extract 10.8 g/kg of the original medicinal material, statistical moment parameters, n = 6, read-out: AUC(0-t)) was determined as 4300 ± 315 ng·h/mL; in data set [1] (setting [8]), 4350 ± 705 ng·h/mL. Further, the CL/F in data set [1] (male, Sprague-Dawley, rat, plasma, po, 10.8 g/kg, male SD rats, oral FA extract 10.8 g/kg of the original medicinal material, statistical moment parameters, n = 6, read-out: CLz/F (converted)) is 41.7 mL/min/kg; in data set [1] (setting [9]), 68.2 mL/min/kg. In addition, the Tmax – broadly, the time at which the peak concentration occurs – in data set [1] (male, Sprague-Dawley, rat, plasma, po, 10.8 g/kg, male SD rats, oral FA extract 10.8 g/kg of the original medicinal material, statistical moment parameters, n = 6, read-out: Tmax) came out at 9.67 ± 0.82 h. For the same molecule, the half-life in data set [1] (male, Sprague-Dawley, rat, plasma, po, 10.8 g/kg, male SD rats, oral FA extract 10.8 g/kg of the original medicinal material, statistical moment parameters, n = 6, read-out: t1/2z (converted)) is 3.4 ± 0.46 h; in data set [1] (setting [10]), 3.86 ± 0.32 h. The “Shape” value in data set [1] is reported as “double peaks”. The “Long-term Stability RE” value is -7.81% in data set [3] (setting [11]), 5.03% in data set [3] (setting [12]) and -8.58% in data set [3] (setting [13]). Further, the “Short-term Stability RE” value in data set [3] (setting [11]) is listed as -13.50%; in data set [3] (setting [12]), 4.10%; in data set [3] (setting [13]) it was -9.20%. Besides, the “Free–thaw Stability RE” value in data set [3] (setting [11]) was -12.68%; in data set [3] (setting [12]), 7.78%; in data set [3] (setting [13]), -10.70%.
